In the METLIN SMRT retention time set (Domingo-Almenara et al. 2019):

Assay: gradient 5% acetonitrile 3 min, to 50% in 2 min, to 85% in 15 min, held 3 min, 100 µL/min
Conditions: column: Zorbax Extend-C18 2.1 x 50 mm; eluents: water / acetonitrile, 0.1% formic acid
Outline: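 Pure standards were run in mixtures of ~100 molecules by HPLC coupled to a quadrupole time-of-flight mass spectrometer. The column was a Zorbax Extend-C18 (2.1 × 50 mm, 1.8 μm) at 100 μL/min, with water and acetonitrile each containing 0.1% formic acid, in positive and negative ionization mode. Dead and dwell volumes were 40 μL and 900 μL. Retention time was taken from computationally picked adduct peaks, each manually inspected, with data collected over 3 months.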

O=S(=O)(Cc1ccccc1)N1CCC(n2c(-c3ccoc3)nc3cccnc32)C1 (stereo unspecified)
RP-LC retention time: 787 s

CCCCc1ccc(NC(=O)Cn2nc3cc(C)nc(-c4ccc(Cl)cc4)n3c2=O)cc1
RP-LC retention time: 1200 s

Cc1cc(C)cc(N2CCC(NC(=O)c3cccc(C#N)c3)C2=O)c1 (stereo unspecified)
RP-LC retention time: 863 s

O=S(=O)(c1ccc(-c2noc(-c3cccc(Br)c3)n2)cc1)N1CCCC1
RP-LC retention time: 1290 s

COc1ccc(Cl)c2c(=O)c3c([nH]c12)CCN(CC(=O)Nc1ccc(C)cc1)C3
RP-LC retention time: 632 s

CC(C)Cc1csc(-c2csc(S(=O)(=O)NC3CCCCC3)c2)n1
RP-LC retention time: 1320 s

Cc1ccc(N2C(=O)SC(N(CC(N)=O)c3ccc(C)cc3)C2=O)cc1 (stereo unspecified)
RP-LC retention time: 782 s

COc1ccc(NC(=O)Cn2nc(N3CCOCC3)c3ccccc3c2=O)cc1
RP-LC retention time: 730 s

CCN(Cc1ccncc1)C1CN(S(=O)(=O)c2ccc3c(c2)CCC3)C1
RP-LC retention time: 686 s

CCN1C(=O)C(CC(=O)NCCCOC)Sc2ncccc21 (stereo unspecified)
RP-LC retention time: 620 s

COc1cc(OC)cc(C(=O)Nc2nc(-c3ccc4c(c3)NC(=O)C(C)O4)cs2)c1 (stereo unspecified)
RP-LC retention time: 940 s

COc1ccc(-c2nc(NC(=O)CS(=O)(=O)c3ccc(C)cc3)sc2C)cc1
RP-LC retention time: 1010 s

CCc1ccccc1N(C)C(=O)Cc1c(C(=O)O)c(C)cn1C
RP-LC retention time: 815 s

O=C(NC1CC1)C1CCCN(C(=O)c2ccc(F)cc2)C1 (stereo unspecified)
RP-LC retention time: 629 s

NS(=O)(=O)c1ccc(CCNS(=O)(=O)c2ccc(-c3cc(C(F)(F)F)on3)o2)cc1
RP-LC retention time: 874 s

O=C(CCc1nnc2ccc(NCc3ccco3)nn12)N1CCN(c2ccccn2)CC1
RP-LC retention time: 569 s

CC(C)NC(=O)N1CCCC(c2cccc(C(=O)NCc3cccc(C(F)(F)F)c3)c2)C1 (stereo unspecified)
RP-LC retention time: 958 s

Cc1noc([C@@H]2CC(F)(F)CN2S(=O)(=O)c2ccc(F)cc2)n1
RP-LC retention time: 884 s

CN1CCN(C(=O)CN2C(=O)C3CCCCN3c3ccc(S(=O)(=O)N4CCCC4)cc32)CC1 (stereo unspecified)
RP-LC retention time: 631 s

COc1ccc(Cl)cc1NC(=O)NCC(c1cccnc1)c1c[nH]c2ccccc12 (stereo unspecified)
RP-LC retention time: 728 s

O=C(NCCn1ncccc1=O)C1(c2cccs2)CCCC1
RP-LC retention time: 652 s

COc1cc(O)c(C(=O)/C=C/c2ccccc2)c(OC)c1
RP-LC retention time: 1220 s

COc1ccc(-c2nnc(-c3cccc(S(=O)(=O)N4CCC(C)CC4)c3)o2)cc1OC
RP-LC retention time: 1050 s

O=C(NCc1csc(C2CCN(S(=O)(=O)c3ccccc3F)CC2)n1)C1CCC1
RP-LC retention time: 811 s

N#CCCN(CCC#N)c1ccc(/C=C2\N=C(c3cc([N+](=O)[O-])ccc3Cl)OC2=O)cc1
RP-LC retention time: 1010 s

CCCn1c(=O)c(-c2ccc(C(=O)NCCOC)cc2)nc2cccnc21
RP-LC retention time: 796 s

O=C(Cn1ccc2ccc(N3CCOCC3)nc21)NCc1ccco1
RP-LC retention time: 773 s

Cc1cc(C)cc(C(=O)N2CCN(c3nc(CN4CCOCC4)cs3)CC2)c1
RP-LC retention time: 647 s

COc1ccc(C(=O)N2CCC(COc3ccc(C(=O)NC4CC4)cc3)CC2)cc1F
RP-LC retention time: 798 s

COc1ccc(-c2nnc(CC(=O)N3CCC4(CC3)OCCO4)o2)cc1
RP-LC retention time: 681 s

Cc1nc(N2CCN(Cc3ccc4c(c3)OCO4)CC2)nc2c1C(=O)CC(C)C2 (stereo unspecified)
RP-LC retention time: 684 s

COC(=O)c1ncn2c1C(=O)N(Cc1ccc(Cl)cc1)C(C)(C(=O)NC1CCCCC1)C2 (stereo unspecified)
RP-LC retention time: 798 s

CC(C)NC(=O)C1CCc2sc(C(=O)N3CCCC3)cc2C1 (stereo unspecified)
RP-LC retention time: 696 s

COc1ccc(C)cc1NC(=O)C1CC(=O)N(c2n[nH]c3ccccc23)C1 (stereo unspecified)
RP-LC retention time: 755 s

CCOc1cc(C)c(C)cc1S(=O)(=O)n1cc(C)nc1CC
RP-LC retention time: 712 s

CN1C(=O)C2(CCN(C(=O)c3ccccc3F)C2)c2ccccc21 (stereo unspecified)
RP-LC retention time: 750 s
